Assay results as given in patent publication US5616563A, “Glutathione N-hydroxycarbamoyl thioesters and method of inhibiting neoplastic growth” (University of Maryland Baltimore Campus, priority 1994, dated 1997).

Test system: human erythrocytes
Assay: Erythrocyte uptake of 35S-labeled compounds
Method: In order to test the ability of human erythrocytes to take up the above enediol and its ethyl ester derivative, suspensions of washed human erythrocytes were separately incubated with [^35 S] GSH, [^35 S]S-(N-hydroxy N-methylcarbamoyl) glutathione, and with [^35 S] S-(N-hydroxy N-methylcarbamoyl) glutathione[glycyl]-O-ethyl ester. The tests were conducted with 50:50 (v:v) erythrocytes in PBS buffer at 37° C. in the presence of 8.5 mM extracellular [^35 S] labeled compounds.

[1] = 0 h, 8.5 mM extracellular, 37° C.

SMILES	Extracellular Total 35S species (0 h)	Extracellular [35S] S-(N-hydroxy N-methylcarbamoyl) glutathione (0 h)	Intracellular Total 35S species [1]	Extracellular Total 35S species (6 h)	Extracellular [35S] S-(N-hydroxy N-methylcarbamoyl) glutathione (6 h)	Intracellular Total 35S species (6 h)	Extracellular Total 35S species (12 h)	Extracellular [35S] S-(N-hydroxy N-methylcarbamoyl) glutathione (12 h)	Intracellular Total 35S species (12 h)	Intracellular [35S] S-(N-hydroxy N-methylcarbamoyl) glutathione (12 h)	Extracellular Total 35S species (24 h)	Extracellular [35S] S-(N-hydroxy N-methylcarbamoyl) glutathione (24 h)	Intracellular Total 35S species (24 h)	Intracellular [35S] S-(N-hydroxy N-methylcarbamoyl) glutathione (24 h)	Extracellular Total 35S species (36 h)	Extracellular [35S] S-(N-hydroxy N-methylcarbamoyl) glutathione (36 h)	Intracellular Total 35S species (36 h)	Intracellular [35S] S-(N-hydroxy N-methylcarbamoyl) glutathione (36 h)	Extracellular Total 35S species (48 h)	Intracellular Total 35S species (48 h)	further results
CCOC(=O)CNC(=O)[C@H](CSC(=O)N(C)O)NC(=O)CC[C@H](N)C(=O)O [[^35 S] .box-solid., [^35 S] S-(N-Hydroxy N-Methyl Carbamoyl) Glutathione [Glycyl]-O-Ethyl Ester]	8.54 mM	1.27 mM	~ 0.01 mM	8.60 mM	1.27 mM	0.05 mM	8.62 mM	1.42 mM	0.07 mM	0.02 mM	8.49 mM	1.65 mM	0.20 mM	0.05 mM	8.09 mM	1.83 mM	0.45 mM	0.14 mM	7.90 mM	0.67 mM	diffusion rate into erythrocytes relative to [35S] 2: ~ 2 fold; Extracellular [35S] S-(N-hydroxy N-methylcarbamoyl) glutathione glycyl-O-ethyl ester (0 h): 7.22 mM; Extracellular [35S] S-(N-hydroxy N-methylcarbamoyl) glutathione (0 h, listed as [^35 S] 2(Et)): 1.3 mM; Extracellular [35S] S-(N-hydroxy N-methylcarbamoyl) glutathione glycyl-O-ethyl ester (6 h): 7.17 mM; Intracellular [35S] S-(N-hydroxy N-methylcarbamoyl) glutathione (6 h): ~ 0.01 mM; Intracellular [35S] S-(N-hydroxy N-methylcarbamoyl) glutathione glycyl-O-ethyl ester (6 h): ~ 0.01 mM; Extracellular [35S] S-(N-hydroxy N-methylcarbamoyl) glutathione glycyl-O-ethyl ester (12 h): 7.02 mM; Intracellular [35S] S-(N-hydroxy N-methylcarbamoyl) glutathione glycyl-O-ethyl ester (12 h): 0.03 mM; Extracellular [35S] S-(N-hydroxy N-methylcarbamoyl) glutathione glycyl-O-ethyl ester (24 h): 6.62 mM; Intracellular [35S] S-(N-hydroxy N-methylcarbamoyl) glutathione glycyl-O-ethyl ester (24 h): 0.12 mM; Extracellular [35S] S-(N-hydroxy N-methylcarbamoyl) glutathione glycyl-O-ethyl ester (36 h): 6.01 mM; Intracellular [35S] S-(N-hydroxy N-methylcarbamoyl) glutathione glycyl-O-ethyl ester (36 h): 0.28 mM; Extracellular [35S] S-(N-hydroxy N-methylcarbamoyl) glutathione (48 h): 1.89 mM; Extracellular [35S] S-(N-hydroxy N-methylcarbamoyl) glutathione glycyl-O-ethyl ester (48 h): 5.70 mM; Intracellular [35S] S-(N-hydroxy N-methylcarbamoyl) glutathione (48 h): 0.24 mM; Intracellular [35S] S-(N-hydroxy N-methylcarbamoyl) glutathione glycyl-O-ethyl ester (48 h): 0.39 mM; final intracellular [35S] 2 relative to that expected from import of contaminating [35S] 2 (48 h): about 3 fold; Extracellular [35S] S-(N-hydroxy N-methylcarbamoyl) glutathione (48 h, listed as [^35 S] 2(Et)): 1.9 mM
CN(O)C(=O)SC[C@H](NC(=O)CC[C@H](N)C(=O)O)C(=O)NCC(=O)O [[^35 S] .circle-solid., [^35 S] S-(N-Hydroxy N-Methylcarbamoyl) Glutathione]	8.44 mM	8.20 mM	~ 0 mM	8.57 mM	8.32 mM	0.02 mM	8.67 mM	8.39 mM	0.03 mM	~ 0.01 mM	8.24 mM	7.96 mM	0.12 mM	0.08 mM	8.24 mM	7.96 mM	0.31 mM	0.26 mM	8.50 mM	0.44 mM	Extracellular [35S] GSH + [35S] GSSG (0 h): ~ 0.01 mM; Extracellular [35S] GSH + [35S] GSSG (6 h): 0.15 mM; Extracellular [35S] GSH + [35S] GSSG (12 h): 0.14 mM; Intracellular [35S] GSH + [35S] GSSG (12 h): ~ 0.01 mM; Extracellular [35S] GSH + [35S] GSSG (24 h): 0.14 mM; Intracellular [35S] GSH + [35S] GSSG (24 h): 0.03 mM; Extracellular [35S] GSH + [35S] GSSG (36 h): 0.13 mM; Intracellular [35S] GSH + [35S] GSSG (36 h): 0.04 mM; Extracellular [35S] GSH + [35S] GSSG (48 h): 0.14 mM; Extracellular [35S] S-(N-hydroxy N-methylcarbamoyl) glutathione (48 h): 8.19 mM; Intracellular [35S] GSH + [35S] GSSG (48 h): 0.04 mM; Intracellular [35S] S-(N-hydroxy N-methylcarbamoyl) glutathione (48 h): 0.37 mM
N[C@@H](CCC(=O)N[C@@H](C[35SH])C(=O)NCC(=O)O)C(=O)O [[^35 S] GSH, reference compound]	8.48 mM		~ 0 mM	8.56 mM		0.04 mM	8.61 mM		0.05 mM		8.38 mM		0.13 mM		8.37 mM		0.28 mM		8.23 mM	0.48 mM	Extracellular [35S] GSH (0 h): 7.95 mM; Extracellular [35S] GSSG (0 h): 0.43 mM; Extracellular [35S] GSH (6 h): 7.90 mM; Extracellular [35S] GSSG (6 h): 0.53 mM; Intracellular [35S] GSH (6 h): 0.02 mM; Intracellular [35S] GSSG (6 h): 0.02 mM; Extracellular [35S] GSH (48 h): 5.31 mM; Extracellular [35S] GSSG (48 h): 2.49 mM; Intracellular [35S] GSH (48 h): 0.10 mM; Intracellular [35S] GSSG (48 h): 0.27 mM
